# Results as given in article PMC12656566, “Toxicokinetic Characterization of MDM Hydantoin via Stable Metabolite DMH: Population Modeling for Predicting Dermal Formaldehyde Formation” (Toxics, 2025).
# Entries after “also recorded” stand apart in the source; their conditions may differ. Like-named read-outs stand apart in the source and are kept apart here.
# Experiment: Toxicokinetics after transdermal application of gel containing 2% MDMH or DMH (plasma, non-compartmental analysis)
# Format: in vivo
# Details: rats; for bioavailability: plasma, DMH, TD application of 2% DMH gel (10.7 mg/kg) vs IV, read-out: Absolute bioavailability
# Experimental: An API 4000 LC-MS/MS system (Applied Biosystems/MDS Sciex, Foster City, CA, USA) coupled with an Agilent 1100 HPLC (Agilent Technologies, Santa Clara, CA, USA) was used for determination of MDMH and DMH in rat plasma. The analytes were separated on a Synergi Fusion-RP 80 Å (150 × 2.0 mm, i.d., 4 µm;) with a Security Guard™ Cartridge AJ0-7556 (Phenomenex, Torrance, CA, USA), and the column oven temperature was maintained at 30 °C. An isocratic solvent system of distilled water and methanol (80:20, v/v) was used with a runtime of 7 min. The injection volume was 10 µL, and the flow rate was maintained at 0.2 mL/min.
# For plasma sample preparation, formic acid was immediately added to blood samples upon collection to achieve a final concentration of 0.5% to prevent potential enzymatic degradation of MDMH, and all sample preparation procedures were conducted at ≤4 °C to minimize temperature-dependent decomposition of the analytes. For analysis, 50 μL of internal standard solution and 100 μL of methanol containing 0.5% formic acid (as precipitating solvent) were added to 50 μL of plasma, followed by vortex-mixing for 2 min. After centrifugation at 21,206× g for 10 min, 40 μL of supernatant was mixed with 160 μL of 0.5% formic acid in distilled water, and 10 μL was injected into the LC-MS/MS system.
# All animal care and experiments were conducted to evaluate the toxicokinetics of MDMH and DMH according to the Guidelines for the Care and Use of Animal approved by the Ethics Committee for Treatment of Laboratory Animal at Daegu Catholic University (CUD-2019-020). To evaluate the toxicokinetics of MDMH and DMH in rats after intravenous injection (IV) or transdermal application (TD). Male Sprague-Dawley rats (9 weeks, body weight 260–310 g) (Hyochang Science Co., Daegu, Republic of Korea) were kept in plastic cages and fed regularly with water and feed. Rats were acclimated for a minimum of 1 week prior to the experiment under conditions keeping a 12 h light-dark cycle, a temperature of 23 ± 2 °C, and a relative humidity of 50 ± 10%. The rats were cannulated using polyethylene tubing (0.58 mm i.d., 0.96 mm o.d., Natsume, Tokyo, Japan) in the jugular vein after intraperitoneal injection at a dose of 0.9 mL/kg of Zoletil 50 (Virbac, Carros, France).
# The transdermal application study was performed according to the “Organization for Economic Cooperation and Development guidelines for the in vivo skin absorption test”. Rats were anesthetized using inhaled isoflurane, and the back area of 6 × 6 cm^2 was removed using an electric clipper (808, Daito Electric Co., Osaka, Japan) 12 h before administration. The clipped skin of the rat was wiped with acetone without damaging the stratum corneum, and a resting period was allowed just before the study.
# For TD application, a gel corresponding to approximately 5 mg/cm^2 was applied to an area of 5 × 5 cm^2 among the depilated areas. The doses of MDMH and DMH for the transdermal application study were 10.9 and 10.7 mg/kg on average, respectively. Although the regulatory limit for MDMH in cosmetics is 0.2%, a higher concentration (2%) was employed to ensure adequate systemic exposure and plasma concentrations suitable for accurate toxicokinetic characterization of these rapidly metabolized compounds. To prevent loss of the compounds due to volatilization and grooming, the application on the back site was adhered with gauze and pads. Blood samples were collected via the jugular vein in the MDMH application group at 0, 30 min, and 1, 2, 3, 4, 5, 6, 7, 8, 10, 12, and 24 h (13 points/head), and in the DMH application group at 0, 30 min, and 1, 2, 3, 4, 6, 8, 10, 12, and 24 h (11 points/head). Plasma samples were harvested by centrifugation of obtained blood for 10 min at 4000× g, and stored at −20 °C until analysis.
# The toxicokinetic parameters were calculated by standard non-compartmental analysis using the non-linear least squares regression program Phoenix™ WinNonlin® 6.1 (Pharsight, Cary, NC, USA). […]
# [1] = male, Sprague-Dawley, rat, topical or ocular, DMH in plasma after TD application of gel containing 2% DMH (10.7 mg/kg), n = 5
SMILES,"bioavailability (male, Sprague-Dawley, rat, topical or ocular, n = 5)","bioavailability (male, Sprague-Dawley, rat, topical, n = 5)",AUC(0-t) [1],Cmax [1],Tmax [1],half-life [1],"AUC(0-inf) (male, Sprague-Dawley, rat, topical or ocular, DMH in plasma after TD application of gel containing 2% DMH (10.7 mg/kg), n = 5, read-out: AUCinfinity)","parent compound plasma concentrations after transdermal application (MDMH in plasma after MDMH gel TD application, throughout the sampling period)",Fm to DMH (fraction metabolized) (ratio of DMH exposure after MDMH gel TD (10.9 mg/kg) to that after DMH gel TD)
"CC1(C)NC(=O)NC1=O [DMH, 5,5-dimethylhydantoin]",101 ± 18%,101 ± 18%,40510 ± 50 ng·h/mL,6460 ± 1690 ng/mL,2 ± 1.73 h,322 ± 131 min,51500 ± 5530 ng·h/mL,,
"CC1(C)C(=O)NC(=O)N1CO [MDMH, 1-(Hydroxymethyl)-5,5-dimethylhydantoin]",,,,,,,,below the quantification limit; also recorded: below quantification limits,89.78 ± 24.15%
